# Test results published in article PMC8710297, “Identification of potent SENP1 inhibitors that inactivate SENP1/JAK2/STAT signaling pathway and overcome platinum drug resistance in ovarian cancer” (Clinical and Translational Medicine, 2021).
# How the values were obtained:
# IGROV1 CR cells = experiment: Synergy with cisplatin, SRB cell viability, combination index; type: cell-based
# Experimental: (§1) Cell viability was measured by SRB assay. […] Data were represented as mean ± SD (n = 3). (B) Colony formation assay in cells treated as indicated. […] (D) Growth curves of xenograft tumors are shown in (C). Data are represented as means ± SEM, n = 6 mice/group. **p < 0.01. […] (F) IGROV1 CR xenograft tumor growth curve by indicated treatments. Data are represented as means ± SD, n = 6 tumors/group. **p < 0.01. (G) Immunohistochemistry (IHC) staining against pSTAT3 antibodies of tumor samples from four groups of mice (magnification, 200x) (Upper). […]
# represented as mean ± SD (n = 3) . ( B) Body we i ght changes of mice in each grou p treated […]
# […] Data are rep res e nted as mea ns ± SD, n= 6 tu mors /g roup . (C) H&E staining of paraffin‐embedded 3‐μm‐th ick tissue sec tions of the tumor, heart, lung , liver and kidney from 4 groups of mice (m agn i f ication , ×200) treated in B.
# Cisplatin: sl ightl y […]
# means ± SD, n=6 tumors/group . […]
# 1. Antibodies and re a ge nt s […]
# […] Momordin Ic ( A14773; Adooq Biosc ience) was dissolved in DMSO. Ursolic acid (A10961; Adooq Bioscience) wa s dissolved in DMSO. […]
# Cell viability was detected using Sulforhodamine B (SRB) assay as described previously (3).
# Absorbance at 51 0 nm was detected using a SpectraMax Re a d e r (Molecular Devices) and an alyzed with SoftMax Analys is Software (Molecular Devices). […]
# IGROV1 CR xenograft = IGROV1 CR xenograft tumor growth; type: in vivo; conditions: nude mice, i.p., cisplatin 8 mg/kg/2 days + UA 10 mg/kg/2 days or UAMMC9 2 mg/kg/2 days, compared to single agents
# Experimental: Importantly, the treatments had minor toxicity (Figures S3B–D).
# as §1
# ac etoni tri le (solvent A) and 0.02% phosphoric ac id in 10% acetonitrile in wate r (solvent B) at a constant solvent flow rate of 1.0 mL/min.
# 9. Molecular docking and dynamics simulation
# Docking and scoring were performed by using Schrödinger software pa c ka ge. Lig Prep wa s incorp orated to refin e UA (ligand). Ionization state s within pH=7.0±2.0 were selected fo r docking. SENP1 crystal structu re was downloaded from protein datab ank (PDB ID: 2IY0, http :// ww w.rcsb.org /). […] The protein wa s added hyd ro g e n atom s and charges, removed wate rs by Protein Preparation Wi zard module. […] The extended sampling method wa s selected fo r confor mationa l search, and the resi du es in the ra n ge of ligand 5 Å we re further optimized. […]
# 6 tumors per group were assessed. […]
SMILES,synergy with cisplatin to inhibit IGROV1 CR cells (IGROV1 CR cells),reduction of tumor growth in combination with cisplatin (IGROV1 CR xenograft)
"C[C@H]1[C@H](C)CC[C@]2(C(=O)O)CC[C@]3(C)C(=CC[C@@H]4[C@@]5(C)CC[C@H](O)C(C)(C)[C@@H]5CC[C@]43C)[C@H]12 [UA, ursolic acid, reference compound]",great synergy,remarkable synergy
C[C@H]1[C@H](C)CC[C@]2(C(=O)NCC(=O)N(C)CCO)CC[C@]3(C)C(=CC[C@@H]4[C@@]5(C)CC[C@H](O)C(C)(C)[C@@H]5CC[C@]43C)[C@H]12 [UAMMC9],great synergy,remarkable synergy
